Measurements reported in patent US6908591B2, “Methods for sterilizing biological materials by irradiation over a temperature gradient” (Clearant, Inc., priority 2002, dated 2005).

Columns and labels:
ACL collagen [1] = assay: SDS-PAGE of purified pepsin-digested collagen, ACL in high salt, low salt, neutral or low pH irradiated at -80° C. to 50 kGy (Example 10)
Experimental: This experiment was to determine whether high salt, low salt, neutral pH and low pH treated ACL will help to deliver stabilizers into ACL tissue to protect it from γ-irradiation at -80° C. with 50 kGy. 1. Prepared stock solution 2M sodium ascorbate (Spectrum […], Lot#QP0839) in water. Samples were prepared with the following: • a) DPBS • b) DPBS/200 mM sodium ascorbate • c) 0.5N HOAc • d) 0.5N HOAc/200 mM sodium ascorbate • e) 20 mM sodium phosphate pH 7.6 • f) 20 mM sodium phosphate pH 7.6/200 mM sodium ascorbate • g) 20 mM sodium phosphate pH 7.6/1M NaCl • h) 20 mM sodium phosphate pH 7.6/1M NaCl/200 mM sodium ascorbate. 2. These samples were irradiated with 0 and 50 kGy at 1.53 kGy/hr at NIST. 4. ACL were digested with pepsin and collagen purified by precipitating with salt.

type I collagen [2] = assay: SDS-PAGE of type I collagen irradiated to 45 kGy with stabilizers (Example 17); settings: gamma irradiation at -20° C.
Experimental: In this experiment, type I collagen at −20° C., −80° C. or freeze-dried at 4° C. were irradiated with gamma radiation to a total dose of 45 kGy in the presence of various stabilizers.
• 1M thiourea (Sigma T8656) in water; • 0.5M coumarin (Sigma CC4261) in ethanol; • 0.5M 0-coumaric acid (Sigma C4400) in ethanol; • 0.5M curcumin (Sigma C1386) in ethanol; • 1M L-cysteine (Sigma C6852) in water; • 1M 1,3-dimethyl-2-thiourea (Aldrich 534-13-4) in water; • 1M 2-mercaptoethylamine (Sigma M6500) in water; and • 1M 1,3-dimethylurea (Sigma D6254) in water. Phosphate buffer solution of 40 mM sodium phosphate and 100 mM NaCl; pH=7.66. Methods: The following samples were prepared to a final volume of 0.5 ml: • 1 mg/ml collagen in 5 mM acetic acid (control); • 1 mg/ml collagen+0.1 M coumaric acid; • 1 mg/ml collagen+5 mM curcumin; • 1 mg/ml collagen+0.1M L-cysteine; • 1 mg/ml collagen+0.1M 1,3-dimethyl-2-thiourea; • 1 mg/ml collagen+0.1M thiourea; • 1 mg/ml collagen+0.1M 2-mercaptoethylamine; and • 1 mg/ml collagen+0.1M 1,3-dimethylurea. The samples were irradiated as follows: • freeze-dried; temperature:4.7° C.; dose rate: 1.656 kGy/hr; total dose:45 kGy; • temperature:−20.5° C.; dose rate:1.537 kGy/hr; total does:45 kGy; and • […]; dose rate:1.530-1.528 kGy/hr;45 kGy. Following irradiation, the samples were analyzed by SDS-PAGE. Additionally, the samples were diluted 1:2 with water to give collagen concentrations of 0.5 mg/ml and a turbidity assay was performed to detect collagen fibril formation. Collagen fibril formation was initiated by adding 100 μl of phosphate buffer solution. The assay was done in triplicate using a microtiter plate reader at 340 nm wavelength.

type I collagen [3] = assay: Turbidity assay of collagen fibril formation after irradiation (Example 17); assay type: biochemical; settings: 45 kGy
Experimental: Phosphate buffer solution of 40 mM sodium phosphate and 100 mM NaCl; pH=7.66. Methods: […] Following irradiation, the samples were analyzed by SDS-PAGE. Additionally, the samples were diluted 1:2 with water to give collagen concentrations of 0.5 mg/ml and a turbidity assay was performed to detect collagen fibril formation. Collagen fibril formation was initiated by adding 100 μl of phosphate buffer solution. The assay was done in triplicate using a microtiter plate reader at 340 nm wavelength.

[4] = Experimental: • Tissue—Porcine Pulmonary Valve (PV) Heart valves were harvested prior to use and stored. • Tissue Preparation Reagents— • Polypropylene Glycol 400.
An additional 1 ml PPG was added and further water bath sonicated.
The 0.5M solution was soluble after a 20-30 minute water bath sonication.

porcine AV heart valves = assay: HPLC analysis of frozen AV heart valve cusps irradiated to 30 kGy at -20° C. (Example 3); settings: 1.584 kGy/hr
Experimental: In this experiment, frozen porcine AV heart valves soaked in various solvents were gamma irradiated to a total dose of 30 kGy at 1.584 kGy/hr at −20° C. 5. […] 6. Incubated tubes at 4° C. with nutating for ˜46 hours. 9. Frozen samples were then irradiated at −20° C. at a rate of 1.584 kGy/hr to a total dose of 30 kGy.

[5] = tested on: porcine ACL extractable proteins; assay: Guanidine HCl extracts of freeze dried ACL irradiated to 45 kGy: SDS-PAGE, BCA assay, densitometry (Example 6); settings: 45 kGy versus 0 kGy control
Experimental: Guanidine HCL extraction was done with 4 M GuHCl in 0.5 NaOAC pH 5.8 and 5 mM EDTA, 10 mM NEM, 5 mM Benzamidine and 1 mM PMSF to a final concentration of […] of extraction buffer. The samples were incubated at 4° C. on a nutator for 2 days.
A BCA assay was performed on the dialysates of the PPG+cocktail guanidine extracted samples to determine the total protein concentration in the samples.
Using BCA and SDS-PAGE on the PPG+Cocktail sample, guanidine extracts were evaluated based on SDS-PAGE of equal protein load. The protein concentrations were as follows:
Densitometry was performed on two different protein bands, as follows: […]

collagen = assay: Turbidity assay of liquid and gel collagen irradiated on dry ice (Example 18); assay type: biochemical; settings: frozen on dry ice, 48.73 to 53.38 kGy
Experimental: The samples were gamma irradiated at […] (frozen on dry ice) at dose rates of […] to a total dose of 48.73 to 53.38 kGy. The irradiated samples were analyzed by SDS-PAGE. Additionally, the samples were diluted 1:2 with water to give collagen concentrations of 0.5 mg/ml and a turbidity assay was performed to detect collagen fibril formation. Collagen fibril formation was initiated by adding 100 μl of phosphate buffer solution. The assay was done in triplicate using a microtiter plate reader at 340 nm wavelength.

ACL collagen [6] = assay: SDS-PAGE densitometry of purified pepsin-digested collagen, ACL in alcohols irradiated at -80° C. to 50 kGy (Example 11); settings: 1.53 kGy/hr
Experimental: This experiment was to determine whether alcohols can protect ACL tissue samples from γ-irradiation at −80° C. with 50 kGy. 1. […] 2. These samples were then incubated with different alcohols for 2 hr in a shaking incubator at 37° C. 3. After 2 hr incubation, these ACL tubes were decanted and fresh solutions were added to each ACL containing tubes and incubated overnight at −80° C. 4. These samples were irradiated with 0 and 50 kGy at 1.53 kGy/hr at NIST. 6. ACL were digested with pepsin and collagen purified by precipitating with salt. 8. Ran 10 μg of each purified pepsin-digested collages on 4-12% gel and quantified both alpha 1 and alpha 2 chains.

ACL collagen [7] = assay: Turbidity assay of collagen isolated from ACL irradiated in alcohols (Example 11); assay type: biochemical; settings: even at 0.5 mg/ml
Experimental: 7. Turbidity assay was performed for these collagens using at [1 mg/ml].
A turbidity assay was performed for the collagen isolated from these ACL samples. Correlation was found between the ACL collagen before and after irradiation.

[8] = tested on: Porcine Pulmonary Valve (PV) Heart valves; assay: HPLC and gel analysis of heart valve cusps gamma irradiated to 30 kGy at -20° C. (Example 1); settings: 1.584 kGy/hr
Experimental: In this experiment, porcine heart valves were gamma irradiated in the presence of polypropylene glycol 400 (PPG400) and, optionally, a scavenger, to a total dose of 30 kGy (1.584 kGy/hr at −20° C.).
5. 1.2 ml of PPG were added to two tubes (one of these tubes was designated 0 kGy and the other tube was designated 30 kGy): • 1.2 ml of 125 mM Trolox C in PPG were added to another two tubes • 1.2 ml of SCb stabilizer mixture—comprising of 1.5 ml 125 mM Trolox C, 300 μl 1 M Lipoic Acid, 600 μl 0.5 M Coumaric Acid and 600 μl 0.5 M n-Propyl Gallate (Final concentrations: 62.5 mM, 100 mM, 100 mM and 100 mM respectively) were added to the final two tubes.
6. Tubes were incubated at 4° C., with rocking for about 60 hours.
Samples were irradiated at a rate of 1.584 kGy/hr at −20° C. to a total dose of 30 kGy.
3. Samples were weighed, transferred to hydrolysis vials and 6 N HCl added at a volume of 20 mg tissue/ml HCl:
4. Samples were hydrolyzed at 110° C. for approximately 23 hours.

Molecule: CC(=O)O [0.5N HOAc, acetic acid]
- yield of purified pepsin-digested collagen at 50 kGy (ACL collagen [1]; without ascorbate, -80° C.): 73%

Molecule: CNC(=O)NC [1,2-dimethylurea, 1,3-dimethylurea]
- protective effect on collagen (type I collagen [2]): less than that observed with thiourea and 1,3-dimethyl-2-thiourea

Molecule: CNC(=S)NC [1,3-dimethyl-2-thiourea]
- fibril formation after irradiation (turbidity assay) (type I collagen [3]): could form fibrils after irradiation
- fibril formation after irradiation (turbidity assay) (type I collagen [3]; irradiated at -80° C.): could form fibrils after irradiation

Molecule: NCCS [2-mercaptoethylamine]
- fibril formation after irradiation (turbidity assay) (type I collagen [3]; irradiated at -80° C.): could form fibrils after irradiation
- protective effect on collagen (type I collagen [2]): less than that observed with thiourea and 1,3-dimethyl-2-thiourea

Molecule: O=C(O)/C=C/c1ccc(O)cc1 [Coumaric Acid]
- solubility of the stock solution in PPG [4]: not 100% soluble

Molecule: C[S+](C)[O-] [DMSO, dimethyl sulfoxide]
- HPLC analysis, preservation of peaks after irradiation (porcine AV heart valves; listed as 20% DMSO): reproduced these peaks more faithfully
- HPLC analysis, preservation of peaks after irradiation (porcine AV heart valves; listed as 50% DMSO): slightly more effective

Molecule: OC[C@H]1O[C@H](O[C@H]2O[C@H](CO)[C@@H](O)[C@H](O)[C@H]2O)[C@H](O)[C@@H](O)[C@@H]1O [Trehalose, D(+)-trehalose]
- protection of guanidine extractable proteins by SDS-PAGE [5]: least protection

Molecule: Cc1c(C)c2c(c(C)c1O)CCC(C)(C(=O)O)O2 (stereo not shown) [Trolox C, 6-hydroxy-2,5,7,8-tetramethylchroma-2 carboxylic acid]
- solubility of the stock solution in PPG [4]: not soluble
- soluble at (in PPG) [4]: 125 mM

Molecule: O=C1O[C@H]([C@@H](O)CO)C([O-])=C1O.[Na+] [ascorbate, sodium ascorbate]
- yield of purified pepsin-digested collagen at 50 kGy (ACL collagen [1]; with ascorbate (200 mM) in 20 mM sodium phosphate pH 7.6 without salt, -80° C.): 75%
- yield of purified pepsin-digested collagen at 50 kGy (ACL collagen [1]; with ascorbate (200 mM) in 0.5N HOAc pH 3.4, -80° C.): 83%
- yield of purified pepsin-digested collagen at 50 kGy (ACL collagen [1]; with ascorbate (200 mM) in high salt (20 mM sodium phosphate pH 7.6/1M NaCl), -80° C.): 40%
- protection of gel or liquid collagen (turbidity assay) (collagen): most effective
- protection of guanidine extractable proteins by SDS-PAGE [5]: most promising results

Molecule: CC(O)C(C)O (stereo not shown) [butanediol, 2,3-butanediol]
- yield for 50 kGy ACL collagen based on the densitometry of alpha 1 and 2 chains (ACL collagen [6]): 88%

Molecule: COc1cc(/C=C/C(=O)CC(=O)/C=C/c2ccc(O)c(OC)c2)ccc1O [curcumin]
- protective effect on collagen (type I collagen [2]): less than that observed with thiourea and 1,3-dimethyl-2-thiourea

Molecule: N[C@@H](CS)C(=O)O [cysteine, L-cysteine]
- fibril formation after irradiation (turbidity assay) (type I collagen [3]; irradiated at -80° C.): could form fibrils after irradiation
- protective effect on collagen (type I collagen [2]): less than that observed with thiourea and 1,3-dimethyl-2-thiourea

Molecule: C[N+](C)(C)[C@@H](Cc1c[nH]c(=S)[nH]1)C(=O)[O-] [ergothionine]
- protection of guanidine extractable proteins by SDS-PAGE [5]: good protection of proteins in the lower ⅔ of the gel

Molecule: CCO [ethanol]
- yield for 50 kGy ACL collagen based on the densitometry of alpha 1 and 2 chains (ACL collagen [6]): 77%
- fibril formation in turbidity assay (ACL collagen [7]): could not form fibrils

Molecule: N[C@@H](Cc1c[nH]cn1)C(=O)O [histidine, L-histidine]
- protection of guanidine extractable proteins by SDS-PAGE [5]: most promising results

Molecule: CCCOC(=O)c1cc(O)c(O)c(O)c1 [n-Propyl Gallate]
- solubility of the stock solution in PPG [4]: soluble

Molecule: CC(O)CO (stereo not shown) [propanediol, 1,2-propanediol]
- fibril formation in turbidity assay (ACL collagen [7]): could not form fibrils

Molecule: polypropylene glycol 400 [PPG 400]
- HPLC analysis, irradiated versus not irradiated heart valve [8]: nearly identical
